Measured values taken from paper PMC8413292, “Small-molecule polymerase inhibitor protects non-human primates from measles and reduces shedding” (Nature Communications, 2021).
“And” between values parts separate entries of the source, which are not always exact repeats. Equal entries are not always repeated.

System: MV/FrankfurtMain.DEU/17.11 (genotype D8)
Experiment: White blood cell counts from whole blood
Assay type: in vivo, squirrel monkeys (Saimiri sciureus)
Settings: for Cells [10^3/mm^3], white blood cells / Cells/ml, white blood cells / Counted Cells (Total), white blood cells: individual animals
Experimental: White blood cell counts, viral load quantification in PBMCs, and quantification of neutralizing antibody titers were performed as follows: for white blood cell counts, blood was diluted 1:100 in 3% acetic acid and cells were counted using a Neubauer chamber. For viral load quantification in PBMCs, blood was centrifuged at 3000 rpm for 15 min and serum was frozen at −20 °C until further use. Red blood cell lysis was performed and the remaining PBMCs were counted using a Neubauer chamber. Viral titers in PBMCs were quantified in quadruplicates using limited dilution method and calculated as TCID50/10^6 PBMCs. Neutralizing antibody titers were quantified by incubating MeV with 2-fold serial dilutions of the respective serum for 20 min at room temperature in quadruplicates. Vero/hSLAM cells were added and incubated for 3 days at 37 °C. Neutralizing antibody titers are expressed as the reciprocal of the highest serum dilution showing no signs of infection. For virus titration from throat swabs, swabs were placed in 150 μl DMEM with 3% penicillin/streptomycin and the titer was quantified by limited dilution method.

Compound: Cn1nc(C(F)(F)F)cc1C(=O)Nc1ccc(S(=O)(=O)N2CCCC[C@H]2CCN2CCOCC2)cc1 [ERDRP-0519]
- WBC group mean (Mean 2) (prophylactic group, Row 5 (14 dpi)): 4.25 10^3cells/mm^3
- WBC group mean (Mean 2) (prophylactic group, Row 6 (17 dpi)): 4.583 10^3cells/mm^3
- WBC group mean (Mean 2) (prophylactic group, Row 7 (21 dpi)): 4.333 10^3cells/mm^3
- Cells [10^3/mm^3], white blood cells (therapeutic (d3) group, 0 dpi): 4.25 10^3/mm^3 and 7.75 10^3/mm^3 and 4.75 10^3/mm^3 and 5.75 10^3/mm^3 and 5 10^3/mm^3
- Cells/ml, white blood cells (therapeutic (d3) group, 0 dpi): 7.75E+06 Cells/ml and 4.75E+06 Cells/ml and 5.75E+06 Cells/ml and 5.00E+06 Cells/ml and 4.25E+06 Cells/ml
- Counted Cells (Total), white blood cells (therapeutic (d3) group, 0 dpi): 17 and 31 and 19 and 23 and 20
- Cells [10^3/mm^3], white blood cells (therapeutic (d3) group, 3 dpi): 8.75 10^3/mm^3 and 8.25 10^3/mm^3 (2×) and 6.5 10^3/mm^3 and 5 10^3/mm^3 and 4.5 10^3/mm^3
- Cells/ml, white blood cells (therapeutic (d3) group, 3 dpi): 8.25E+06 Cells/ml (2×) and 6.50E+06 Cells/ml and 5.00E+06 Cells/ml and 4.50E+06 Cells/ml and 8.75E+06 Cells/ml
- Counted Cells (Total), white blood cells (therapeutic (d3) group, 3 dpi): 35 and 33 (2×) and 26 and 20 and 18
- Cells [10^3/mm^3], white blood cells (therapeutic (d3) group, 7 dpi): 3.25 10^3/mm^3 and 8.25 10^3/mm^3 and 4.75 10^3/mm^3 and 3.75 10^3/mm^3 and 7.25 10^3/mm^3 and 2.25 10^3/mm^3
- Cells/ml, white blood cells (therapeutic (d3) group, 7 dpi): 8.25E+06 Cells/ml and 4.75E+06 Cells/ml and 3.75E+06 Cells/ml and 7.25E+06 Cells/ml and 2.25E+06 Cells/ml and 3.25E+06 Cells/ml
- Counted Cells (Total), white blood cells (therapeutic (d3) group, 7 dpi): 13 and 33 and 19 and 15 and 29 and 9
- Cells [10^3/mm^3], white blood cells (therapeutic (d3) group, 10 dpi): 1.75 10^3/mm^3 and 2.75 10^3/mm^3 and 3 10^3/mm^3 and 3.75 10^3/mm^3 and 4.5 10^3/mm^3 and 4.25 10^3/mm^3
- Cells/ml, white blood cells (therapeutic (d3) group, 10 dpi): 2.75E+06 Cells/ml and 3.00E+06 Cells/ml and 3.75E+06 Cells/ml and 4.50E+06 Cells/ml and 4.25E+06 Cells/ml and 1.75E+06 Cells/ml
- Counted Cells (Total), white blood cells (therapeutic (d3) group, 10 dpi): 7 and 11 and 12 and 15 and 18 and 17
- Cells [10^3/mm^3], white blood cells (therapeutic (d3) group, 14 dpi): 6 10^3/mm^3 and 7.5 10^3/mm^3 and 5.5 10^3/mm^3 and 10.75 10^3/mm^3 and 12.75 10^3/mm^3 and 3.25 10^3/mm^3
- Cells/ml, white blood cells (therapeutic (d3) group, 14 dpi): 7.50E+06 Cells/ml and 5.50E+06 Cells/ml and 1.08E+07 Cells/ml and 1.28E+07 Cells/ml and 3.25E+06 Cells/ml and 6.00E+06 Cells/ml
- Counted Cells (Total), white blood cells (therapeutic (d3) group, 14 dpi): 24 and 30 and 22 and 43 and 51 and 13
- Cells [10^3/mm^3], white blood cells (therapeutic (d3) group, 17 dpi): 4.25 10^3/mm^3 and 5 10^3/mm^3 and 4.75 10^3/mm^3 and 4.5 10^3/mm^3 and 3.75 10^3/mm^3
- Cells/ml, white blood cells (therapeutic (d3) group, 17 dpi): 5.00E+06 Cells/ml and 4.75E+06 Cells/ml and 4.50E+06 Cells/ml and 3.75E+06 Cells/ml and 4.25E+06 Cells/ml
- Counted Cells (Total), white blood cells (therapeutic (d3) group, 17 dpi): 17 and 20 and 19 and 18 and 15
- Cells [10^3/mm^3], white blood cells (therapeutic (d3) group, 21 dpi): 4.5 10^3/mm^3 and 3.5 10^3/mm^3 and 10.25 10^3/mm^3 and 7.5 10^3/mm^3 and 2.25 10^3/mm^3
- Cells/ml, white blood cells (therapeutic (d3) group, 21 dpi): 3.50E+06 Cells/ml and 1.02E+07 Cells/ml and 7.50E+06 Cells/ml and 2.25E+06 Cells/ml and 4.50E+06 Cells/ml
- Counted Cells (Total), white blood cells (therapeutic (d3) group, 21 dpi): 18 and 14 and 41 and 30 and 9
- WBC group mean (Mean 2) (therapeutic (d3) group, Row 1 (0 dpi)): 5.5 10^3cells/mm^3
- WBC group mean (Mean 2) (therapeutic (d3) group, Row 2 (3 dpi)): 6.875 10^3cells/mm^3
- WBC group mean (Mean 2) (therapeutic (d3) group, Row 3 (7 dpi)): 4.917 10^3cells/mm^3
- WBC group mean (Mean 2) (therapeutic (d3) group, Row 4 (10 dpi)): 3.333 10^3cells/mm^3
- WBC group mean (Mean 2) (therapeutic (d3) group, Row 5 (14 dpi)): 7.642 10^3cells/mm^3
- WBC group mean (Mean 2) (therapeutic (d3) group, Row 6 (17 dpi)): 4.45 10^3cells/mm^3
- WBC group mean (Mean 2) (therapeutic (d3) group, Row 7 (21 dpi)): 5.61 10^3cells/mm^3
- Cells [10^3/mm^3], white blood cells (therapeutic (d7) group, 0 dpi): 2.75 10^3/mm^3 and 3 10^3/mm^3 (2×) and 7.25 10^3/mm^3 and 5.25 10^3/mm^3
- Cells/ml, white blood cells (therapeutic (d7) group, 0 dpi): 3.00E+06 Cells/ml (2×) and 7.25E+06 Cells/ml and 5.25E+06 Cells/ml and 2.75E+06 Cells/ml
- Counted Cells (Total), white blood cells (therapeutic (d7) group, 0 dpi): 11 and 12 (2×) and 29 and 21
- Cells [10^3/mm^3], white blood cells (therapeutic (d7) group, 3 dpi): 7.5 10^3/mm^3 and 12.5 10^3/mm^3 and 6.5 10^3/mm^3 and 7.75 10^3/mm^3 (2×) and 8.75 10^3/mm^3
- Cells/ml, white blood cells (therapeutic (d7) group, 3 dpi): 1.25E+07 Cells/ml and 6.50E+06 Cells/ml and 7.75E+06 Cells/ml (2×) and 8.75E+06 Cells/ml and 7.50E+06 Cells/ml
- Counted Cells (Total), white blood cells (therapeutic (d7) group, 3 dpi): 30 and 50 and 26 and 31 (2×) and 35
- Cells [10^3/mm^3], white blood cells (therapeutic (d7) group, 7 dpi): 4 10^3/mm^3 (3×) and 5 10^3/mm^3 and 3 10^3/mm^3 and 3.25 10^3/mm^3
- Cells/ml, white blood cells (therapeutic (d7) group, 7 dpi): 4.00E+06 Cells/ml (3×) and 5.00E+06 Cells/ml and 3.00E+06 Cells/ml and 3.25E+06 Cells/ml
- Counted Cells (Total), white blood cells (therapeutic (d7) group, 7 dpi): 16 (3×) and 20 and 12 and 13
- Cells [10^3/mm^3], white blood cells (therapeutic (d7) group, 10 dpi): 3 10^3/mm^3 and 2.75 10^3/mm^3 and 2.5 10^3/mm^3
- Cells/ml, white blood cells (therapeutic (d7) group, 10 dpi): 2.75E+06 Cells/ml and 2.50E+06 Cells/ml and 3.00E+06 Cells/ml
- Counted Cells (Total), white blood cells (therapeutic (d7) group, 10 dpi): 12 and 11 and 10
- WBC group mean (Mean 2) (therapeutic (d7) group, Row 1 (0 dpi)): 4.25 10^3cells/mm^3
- WBC group mean (Mean 2) (therapeutic (d7) group, Row 2 (3 dpi)): 8.458 10^3cells/mm^3
- WBC group mean (Mean 2) (therapeutic (d7) group, Row 3 (7 dpi)): 3.875 10^3cells/mm^3
- WBC group mean (Mean 2) (therapeutic (d7) group, Row 4 (10 dpi)): 2.708 10^3cells/mm^3
- WBC group mean (Mean 2) (therapeutic (d7) group, Row 5 (14 dpi)): 3.125 10^3cells/mm^3
- WBC group mean (Mean 2) (therapeutic (d7) group, Row 6 (17 dpi)): 4.25 10^3cells/mm^3
- WBC group mean (Mean 2) (therapeutic (d7) group, Row 7 (21 dpi)): 5.083 10^3cells/mm^3
